Assay results from patent publication US6528251B2, “Method of managing the chemotherapy of patients who are HIV positive based on the phenotypic drug sensitivity of human HIV strains” (Virco N.V., priority 1996, dated 2003).
Read-outs that look alike come from different tables or passages of the source.

Tests used:
Type in all cases: cell-based, HIV-1
[1] = system: recombinant virus from patient viral RNA (Example 10, drug-naive patient); test: Recombinant virus assay (MT4/MTT), drug-naive patient of Example 10; details: for IC50: Human immunodeficiency virus 1, Table 6, Example 10 patient virus; for ratio (1)/(2): Table 6, patient mean IC50 / recIIIB IC50, Example 10
Experimental: (§1) RNA was isolated from 100 μl of plasma according to the method described by Boom, R. et al. (1990, supra), and was reverse transcribed with the GeneAmp reverse transcriptase kit (Perkin Elmer) as described by the manufacturer and using an HIV-1 specific downstream primer (OUT3: 5′-CATTGCTCTCCAATTACTGTGATATTTCTCATC-3′; SEQ ID NO: 1). PCR on reverse transcribed RNA was performed with inner and outer primers as described by Kellam, P. and Larder, B. A. (1994, supra). After chloroform extraction and centrifugation on Centricon 100 columns or centrifugation on anion-exchange spin columns (Quiagen), the isolated PCR product was ready for use in the transfection reactions.
(§2) MT4 cells were subcultured at a density of 250,000 cells/ml before transfection (exponential growth phase). Cells were pelleted and resuspended in phosphate buffered saline (PBS) at a concentration of […]. A 0.8 ml portion (2.5 10E6 cells/ml) was used for each transfection. Transfection was performed with the Bio-Rad Gene pulser making use of 0.4 cm electrode cuvettes. Cells were electroporated in the presence of […] of linearised pHIVΔRT plasmid and approximately 5 μg of RT PCR product at 250SF and 300 V, followed by a 30-min incubation at room temperature. Subsequently, 10 ml of fresh culture medium was added to the cell suspension and incubation was performed at 37° C. in a humidified atmosphere of 5% CO2.
(§3) During 7 to 10 days following the transfection, cells were monitored for the appearance of cytopathogenic effect (CPE). In the absence thereof, cells were subcultured in different flasks. Subsequently, culture supernatants of transfected cells were used to create a stock of recombinant virus and stored in 1.5 ml aliquots at −70° C.
(§4) After titration of the new viruses, the stocks were used for antiviral experiments in the presence of serial dilutions of different HIV inhibitors. Titres of the harvested supematants were determined by limited serial dilution titration of virus in MT4 cells.
(§5) Viruses with a useful titre were used in antiviral experiments. For this purpose, 96-well microtitre plates were filled with 100μl of complete culture medium. Subsequently, stock solutions of compounds were added in 25 μl volumes to series of duplicate wells. HIV- and mock-infected cell samples were included for each drug (or drug combination). Exponentially growing MT4 cells were then transferred to the microtitre plates at a density of 150,000 cells/ml. The cell cultures were then incubated at 37° C. in a humidified atmosphere of 5% CO2. Five days after infection, the viability of the mock- and HIV-infected cells was examined spectrophotometrically by the M1T method (Pauwels, R. et al. J. Virol. Meth. (1988), 20: 309-321) as described in Section 6 below.
(§6) To each well of the microtiter plates, 20 μl of a solution of MTT (7.5 mg/ml in PBS) was added. The plates were further incubated at 37° C. for 1 h. Then, 150 μl of medium was removed without disturbing the MT4 cell clusters containing the formazan crystals. Solubilization of the formazan crystals was achieved by adding 100 μl 5% Triton X-100 in acidified isopropanol (5 ml concentrated HCl per liter solvent). Complete dissolution of the formazan crystals was obtained after the plates had been placed on a plate shaker for 10 min. Finally the absorbances were read at two wavelengths (540 and 690 nm). From these optical density (OD) data, 50% inhibitory (IC50) and 50% cytotoxic (CC50) concentrations were derived.
(§7) A drug-naive HIV-infected patient donated plasma whose susceptibility to a number of RT inhibitors and protease inhibitors was determined according to the protocol set out in Example 1. Recombinant wild type HIV strain recIIIB was used as a reference HIV virus.

[2] = system: recombinant virus from patient viral RNA (Example 11); test: Recombinant virus assay (MT4/MTT), patient of Example 11 (therapy history RT and protease inhibitors); details: for ratio (1)/(2): Table 7, patient mean IC50 / recIIIB IC50, Example 11
Experimental: as §1, §2, §3, §4, §5, §6
as §7, with “An HIV infected” for “A drug-naive HIV-infected”, “patient with a therapy history including RT and protease inhibitors” for “patient”, “recIIIb” for “recIIIB”

[3] = system: recombinant virus from patient viral RNA (Example 12); test: Recombinant virus assay (MT4/MTT), patient of Example 12 (therapy history RT and protease inhibitors); details: for ratio (1)/(2): Table 8, patient mean IC50 / recIIIB IC50, Example 12
Experimental: as §1, §2, §3, §4, §5, §6
An HIV infected patient with a therapy history including RT and protease inhibitors donated plasma whose susceptibility to a number of RT inhibitors and protease inhibitors was determined according to the protocol set out in Example 1.

[4] = system: recombinant virus from plasma of HIV-infected individuals on NNRTI long-term monotherapy; test: Phenotyping of patients on NNRTI long-term monotherapy (Example 13), fold resistance
Experimental: as §4, §5, §6
Plasma samples were obtained from HIV-infected individuals who had been receiving non-nucleoside RT inhibitor (NNRTI) long-term monotherapy. HIV-RNA was extracted, reverse-transcribed and amplified as described in Example 1. Starting from outer PCR material of positive samples, the first 785 nucleotides of the RT gene were amplified and this material was further used for genotyping.
Amino acids changes at these positions are shown for each patient in the following rows. […] The right part of Table 9 presents the fold resistance to different RT inhibitors as determined by the method according to the invention for each of the patients' samples. NNRTI 1 is the non-nucleoside RT inhibitor that was administered to the patients.

[5] = MT4 cells, read-out: Anti-HIV-1 activity IC50 (μM) Exp. 1
[6] = MT4 cells, read-out: Anti-HIV-1 activity IC50 (μM) Exp. 2
[7] = mean, read-out: Anti-HIV-1 activity IC50 (μM) Mean (1)
[8] = Human immunodeficiency virus 1, MT4, read-out: Anti-HIV-1 activity IC50 (μM) Exp. 1
[9] = Human immunodeficiency virus 1, MT4, read-out: Anti-HIV-1 activity IC50 (μM) Exp. 2
[10] = Human immunodeficiency virus 1, read-out: Anti-HIV-1 activity IC50 (μM) Mean (1)
[11] = Patient 4, no resistance associated mutation
[12] = Patient 5, no resistance associated mutation
[13] = Patient 11, RT mutations M41L, D67N, K70R, K103N, M184V, T215F, K219Q
[14] = Patient 12, RT mutations M41L, T215Y
[15] = Patient 13, RT mutations K101E, K103K/N, E138A, G190G/A
[16] = Patient 16, RT mutations K103N, M184V

Compound | IC50 [1, 5] | IC50 [1, 6] | IC50 [1, 7] | ratio (1)/(2) [1] | ratio (1)/(2) [2] | ratio (1)/(2) [3] | FOLD RESISTANCE TO ([4]; Patient 1, RT mutation K103N) | FOLD RESISTANCE TO ([4]; Patient 2, RT mutation K103S) | FOLD RESISTANCE TO ([4]; Patient 3, RT mutation K103N) | FOLD RESISTANCE TO [4, 11] | FOLD RESISTANCE TO [4, 12] | FOLD RESISTANCE TO ([4]; Patient 6, RT mutation K103N) | FOLD RESISTANCE TO ([4]; Patient 7, RT mutation K103S) | FOLD RESISTANCE TO ([4]; Patient 8, RT mutation K103N) | FOLD RESISTANCE TO ([4]; Patient 9, RT mutation Y181C) | FOLD RESISTANCE TO ([4]; Patient 10, RT mutation K103N) | FOLD RESISTANCE TO [4, 13] | FOLD RESISTANCE TO [4, 14] | FOLD RESISTANCE TO [4, 15] | FOLD RESISTANCE TO ([4]; Patient 14, RT mutation K103N) | further results
Nc1ccn([C@@H]2CS[C@H](CO)O2)c(=O)n1 [3TC, lamivudine] | 1.53 µM | 1.72 µM | 1.62 µM | 0.4 | 19 | 22 | 1 fold | 0.4 fold | 1 fold | 0.1 fold | 0.4 fold | 0.3 fold | 0.04 fold | 1 fold | 1 fold | 0.1 fold | >8 fold | 2 fold | 1 fold | 1 fold | IC50 [2, 8]: > 100 µM; IC50 [2, 9]: 94 µM; IC50 [2, 10]: ≥ 97 µM; IC50 [3, 8]: > 100 µM; IC50 [3, 9]: > 100 µM; IC50 [3, 10]: > 100 µM; FOLD RESISTANCE TO ([4]; Patient 15, RT mutation K103N): 1 fold; FOLD RESISTANCE TO [4, 16]: >8 fold; FOLD RESISTANCE TO ([4]; Patient 17, RT mutation K103N): 1 fold; FOLD RESISTANCE TO ([4]; Patient 18, RT mutation K103S): 1 fold; FOLD RESISTANCE TO ([4]; Patient 19, RT mutation K103N): 1 fold; FOLD RESISTANCE TO ([4]; Patient 20, RT mutation A98G): 1 fold; FOLD RESISTANCE TO ([4]; Patient 21, RT mutation K103N): 0.4 fold; FOLD RESISTANCE TO ([4]; Patient 22, RT mutation V108I): 0.4 fold; FOLD RESISTANCE TO ([4]; Patient 23, RT mutation K103N): 0.2 fold; FOLD RESISTANCE TO ([4]; Patient 24, RT mutation K101Q): 1 fold
Cc1cn([C@H]2C[C@H](N=[N+]=[N-])[C@@H](CO)O2)c(=O)[nH]c1=O [AZT, zidovudine] | 0.019 µM | 0.019 µM | 0.019 µM | 0.5 | 0.3 | 88 | 1 fold | 1 fold | 0.4 fold | 0.3 fold | 1 fold | 1 fold | 1 fold | 1 fold | 2 fold | 0.4 fold | 94 fold | 28 fold | 1 fold | 1 fold | IC50 ([2]; Human immunodeficiency virus 1, Table 7, Example 11 patient virus, MT4 cells, read-out: Anti-HIV-1 activity IC50 (μM) Exp. 2): 0.015 µM; IC50 ([2]; Human immunodeficiency virus 1, Table 7, Example 11 patient virus, mean, read-out: Anti-HIV-1 activity IC50 (μM) Mean (1)): 0.015 µM; susceptibility of the patient's HIV strain (in words) ([3]; Example 12 patient, conclusion from Table 8): decreased susceptibility; IC50 ([3]; Human immunodeficiency virus 1, Table 8, Example 12 patient virus, MT4 cells, read-out: Anti-HIV-1 activity IC50 (μM) Exp. 1): 3.83 µM; IC50 ([3]; Human immunodeficiency virus 1, Table 8, Example 12 patient virus, MT4 cells, read-out: Anti-HIV-1 activity IC50 (μM) Exp. 2): 3.35 µM; IC50 ([3]; Human immunodeficiency virus 1, Table 8, Example 12 patient virus, mean, read-out: Anti-HIV-1 activity IC50 (μM) Mean (1)): 3.59 µM; FOLD RESISTANCE TO ([4]; Patient 15, RT mutation K103N): 2 fold; FOLD RESISTANCE TO [4, 16]: 1 fold; FOLD RESISTANCE TO ([4]; Patient 17, RT mutation K103N): 1 fold; FOLD RESISTANCE TO ([4]; Patient 18, RT mutation K103S): 1 fold; FOLD RESISTANCE TO ([4]; Patient 19, RT mutation K103N): 1 fold; FOLD RESISTANCE TO ([4]; Patient 20, RT mutation A98G): 0.4 fold; FOLD RESISTANCE TO ([4]; Patient 21, RT mutation K103N): 1 fold; FOLD RESISTANCE TO ([4]; Patient 22, RT mutation V108I): 1 fold; FOLD RESISTANCE TO ([4]; Patient 23, RT mutation K103N): 0.2 fold; FOLD RESISTANCE TO ([4]; Patient 24, RT mutation K101Q): 1 fold
